The source of these data is PubChem BioAssay AID2127 (Sanford-Burnham Center for Chemical Genomics, 2009).

Structures are written as SMILES. Activity calls are given as the source filed them.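 How the source made its calls: active means half-maximal inhibitory concentration below a set limit; inactive means the rest.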

As usually defined, the IC50 is the concentration at which inhibition is half-maximal.

For the experiment, the target named is E3 ubiquitin-protein ligase SIAH1 (Homo sapiens) (UniProt Q8IUQ4). Briefly: displacement of labeled plectin from Siah-1 – biochemical, fluorescence polarization, fluorescein-plectin, artefact control for Siah-1 antagonist project, dose response (AID 2127). The settings on record: Siah-1/fluorescein-plectin binding. (Fluorescence polarisation rises when a labelled molecule tumbles more slowly, as on binding a larger partner.)
For the molecule `COc1ccc(CCNC(=O)c2ccc(S(=O)(=O)N(C)c3ccccc3)cc2)cc1OC`, the IC50 was > 200 µM (inactive).
To `CC1CCN(S(=O)(=O)c2ccc3c(c2)c(=O)c(C(=O)NCc2ccccc2Cl)cn3C)CC1` belongs > 200 µM (inactive); to `CC1=C(C#N)c2nc(N)c(C#N)c(C)c2/C1=C\c1ccc(-c2ccccc2C(=O)O)o1`, > 200 µM (inactive); to `CC1CCN(C(=O)C2CCC(C)(C(=O)O)C2(C)C)CC1` (centres undefined), > 200 µM (inactive).
To `CCn1c(O)c(C=Nc2ccc(N3CCOCC3)cc2)c(=O)n(CC)c1=S` belongs 13.9 µM; to `COC(=O)c1cc(NC(=O)c2ccccc2)c(=O)oc1/C=C/Nc1ccc(Oc2ccccc2)cc1`, > 200 µM (inactive).
To `Cc1c(C(=O)O)sc2nc(CSc3ncc(C(F)(F)F)cc3Cl)[nH]c(=O)c12` belongs > 200 µM (inactive); to `CC(=O)Nc1ccc(N=Cc2c(O)c(C(=O)Nc3ccccc3)cc3ccccc23)cc1`, 4.98 µM.
As to `CC[n+]1c(/C=C/N(C)c2ccccc2)sc2ccc(Cl)cc21`, the IC50 was > 200 µM (inactive).
As for `O=C(Nc1ccc(Oc2ccsc2C(=O)O)cc1)c1ccccc1F`, the IC50 is > 200 µM (inactive).
The figure for `O=C(Nc1ccc(Cl)cc1)OCc1cn(-c2ccccc2)nn1` is > 200 µM (inactive); for `COC(=O)C1C=C2c3cccc4[nH]cc(c34)CC2N(C)C1` (centres undefined) it is 6.23 µM.
The figure for `CC(NC(=O)Nc1ccc(O)cc1)(C(F)(F)F)C(F)(F)F` is > 200 µM (inactive); for `CCOC(=O)C1(C)C=C(Nc2ccc(O)cc2)C(=O)N1c1ccc(O)cc1` (centres undefined) it is > 200 µM (inactive); for `O=c1[nH]n(-c2ccc([N+](=O)[O-])cc2)c(=O)c2ccccc12` it is > 200 µM (inactive).
To `Cc1cc(Cl)ccc1NC(=O)CN1CCC(C(O)(c2ccccc2)c2ccccc2)CC1` belongs > 200 µM (inactive); to `COc1ccc(C(C(=O)NCc2ccccc2)N(Cc2ccco2)C(=O)c2cnccn2)cc1` (centres undefined), > 200 µM (inactive).
`CCN(CC)CCOC(=O)c1ccc(N/C=C(/C#N)c2nc(-c3cc4ccccc4oc3=O)cs2)cc1`: the IC50 was > 200 µM (inactive).
In the case of `COc1ccc(N=C2NC(=O)S/C2=C\c2ccc(N(C)C)cc2)cc1`, the IC50 entry was “inactive”.
The figure for `O=C(NCc1c(F)cccc1F)c1cc(COc2c(F)cccc2F)on1` is > 200 µM (inactive); for `CCCCn1c(NC(=O)c2ccc(Br)o2)c(C(=O)OCC)c2nc3ccccc3nc21` it is > 200 µM (inactive); for `O=C(/C=C/c1ccco1)OCc1nnc(-c2ccccc2)o1` it is > 200 µM (inactive).
To `COc1ccc(-c2cnnn2-c2ccc(N)cc2)cc1OC` belongs > 200 µM (inactive); to `O=C(N/N=C/c1ccc(OC(=O)c2cccs2)cc1)c1cccc(F)c1`, > 200 µM (inactive).
For the molecule `O=C(O)CCCCN1C(=O)/C(=C\c2ccc(OCc3ccccc3)c(OCc3ccccc3)c2)SC1=S`, the IC50 was > 200 µM (inactive).
On to `O=C(N/N=C/c1cccc(Br)c1)c1ccc(Br)cc1`, for which the IC50 is > 200 µM (inactive).
To `CS(=O)(=O)N1CCN(c2ccc([N+](=O)[O-])c(SCc3ccco3)c2)CC1` belongs > 200 µM (inactive); to `COc1cc(NS(=O)(=O)c2ccc(NC(=S)NC(=O)/C=C/c3ccc(F)cc3)cc2)ncn1`, > 200 µM (inactive).
To `NS(=O)(=O)c1ccc(NC(=O)c2cccc(N3C(=O)c4ccccc4C3=O)c2)cc1` belongs > 200 µM (inactive); to `CCCCNc1c2c3c(cccc3n(C)c1=O)C(=O)c1ccccc1-2`, > 200 µM (inactive); to `CC1CCN(S(=O)(=O)c2nnc(NC(=O)c3cccc(Cl)c3)s2)CC1`, > 200 µM (inactive).
The figure for `CCC(C)N1C(=O)/C(=C/c2c(NCCCOC(C)C)nc3c(C)cccn3c2=O)SC1=S` (centres undefined) is 5.66 µM; for `COc1cc(/C=C2/SC(=S)N(Cc3ccccc3)C2=O)cc(Cl)c1O` it is > 200 µM (inactive); for `O=C1C=C(NCc2ccccc2)c2ccccc2C1=O` it is > 200 µM (inactive).
In the case of `Oc1ccc(N=Cc2sc3ccccc3c2Cl)cc1`, the IC50 was > 200 µM (inactive).
With `Cc1cc(C)nc(N=Nc2c(O)n(Cc3ccc(Cl)cc3)c3ccccc23)n1`, the IC50 is > 200 µM (inactive).
To `CC(C)(C)c1ccc(C(CC(=O)O)NC(=O)Cc2ccc(F)cc2)cc1` (centres undefined) belongs > 200 µM (inactive); to `O=C(O)c1cc(Cl)c(Cl)cc1C(=O)Nc1cccc2cccnc12`, > 200 µM (inactive).
The figure for `Cc1ccc(CNc2ccc(O)cc2)cc1` is > 200 µM (inactive); for `CCN(CC)c1ccc(/C=c2\sc3nnc(-c4ccccc4Cl)n3c2=O)cc1` it is > 200 µM (inactive).
The figure for `O=C(O)c1ccc(/C=N/NC(=O)c2ccc(CN3c4cccc5cccc(c45)S3(=O)=O)cc2)cc1` is > 200 µM (inactive); for `COCCOC(=O)c1sc(=S)n(CCOC)c1N` it is 15.3 µM; for `CC(=O)c1ccc(S(=O)(=O)Nc2ccc(-c3ccc4nnc(C)n4n3)cc2)cc1` it is > 200 µM (inactive).
In the case of `O=S(=O)(O)c1cc(O)c2c(O)c(N=Nc3cc(Cl)ccc3O)c(S(=O)(=O)O)cc2c1`, the IC50 was > 200 µM (inactive).
To `O=C(Nc1ccc(S(=O)(=O)N2CCOCC2)cc1)c1ccc(=O)[nH]c1` belongs > 200 µM (inactive); to `C[N+]1(CCNC(=O)/C=N/O)CCCCC1`, > 200 µM (inactive); to `O=C(CSc1ccc(Br)c2cccc(Cl)c12)Nc1ccc(S(=O)(=O)Nc2nccs2)cc1`, > 200 µM (inactive).
To `CC1CCCCC1NC(=O)CCS(=O)(=O)c1ccc2c(c1)NC(=O)CO2` (centres undefined) belongs > 200 µM (inactive); to `O=C(Nc1ccc(Br)cc1)c1ccc(N2C(=O)C3CC=CCC3C2=O)cc1` (centres undefined), > 200 µM (inactive).
To `O=C(CC1Nc2cccc3cccc(c23)NC1=O)Nc1ccccc1` (centres undefined) belongs > 200 µM (inactive); to `Cc1ccccc1-c1nc2c3ccccc3nc(=S)n2[nH]1`, > 200 µM (inactive).
Consider `CCOc1ccccc1CNc1ccc(O)cc1`, for which the IC50 was > 200 µM (inactive).
The figure for `COC(=O)C1CC(=O)N(c2ccc(OCc3ccccc3Cl)cc2)C1` (centres undefined) is > 200 µM (inactive); for `COc1cc(/C=C(\C#N)c2nc3ccccc3[nH]2)ccc1OC(=O)c1ccco1` it is > 200 µM (inactive).
To `Cc1ccc(S(=O)(=O)N2CCC(=O)N(C(COCc3cccc(C)c3)Cc3ccccc3)CC2)cc1` (centres undefined) belongs > 200 µM (inactive).
To `O=S(=O)(Nc1nc2ccccc2nc1Nc1ccc(N2CCOCC2)cc1)c1cc(Cl)ccc1Cl` belongs > 200 µM (inactive); to `N#CC1C=Cc2ccccc2N1C(=O)c1ccccc1` (centres undefined), > 200 µM (inactive).
`CCOc1cc(/C=C(\C#N)C(=O)Nc2ccccc2C(=O)O)ccc1OC(=O)c1ccc(C)cc1`: the IC50 is > 200 µM (inactive).
With `COC(=O)c1ccc2c(c1)C(C)(C)C(/C=C/c1ccccc1O)=[N+]2C`, the IC50 was > 200 µM (inactive).
Consider `S=c1[nH]nc(Cc2cccc3ccccc23)n1-c1ccccc1`, for which the IC50 is > 200 µM (inactive).
To `Cc1coc2c(C)c3oc(=O)c(CCC(=O)N[C@@H](C)C(=O)N[C@@H](Cc4ccccc4)C(=O)O)c(C)c3cc12` belongs > 200 µM (inactive).
Take `O=C(O)c1cc(O)c2c(c1)C(=O)c1cccc(O)c1C2=O`: the IC50 entry was “inactive”.
For `O=C1CCCC(O)=C1N=Nc1ccc(C(=O)O)cc1`, the IC50 was > 200 µM (inactive).
Take `COCCCNc1c2c3c(cccc3[nH]c1=O)C(=O)c1ccccc1-2`: the IC50 was > 200 µM (inactive).
The figure for `COc1cc(CNc2ccc(O)cc2)cc(Br)c1OCc1ccccc1F` is > 200 µM (inactive); for `O=C(CCn1ccc2ccccc21)NC1CCCc2ccccc21` (centres undefined) it is > 200 µM (inactive).
To `CCOC(=O)c1c(C)[nH]c2c1-c1ccccc1C(=O)C2=O` belongs > 200 µM (inactive); to `Cc1ccc2c(c1)N(CC(=O)NCCc1ccc(Cl)cc1)C(=O)c1cccnc1O2`, > 200 µM (inactive); to `COCCn1nnnc1C(c1cc2ccc(OC)cc2[nH]c1=O)N1CCc2ccccc2C1` (centres undefined), > 200 µM (inactive).
As to `CN(Cc1c(C(=O)N/N=C/c2ccc(F)cc2)nnn1-c1nonc1N)C1CCCCC1`, the IC50 was > 200 µM (inactive).
For the molecule `O=C(Nc1cc([N+](=O)[O-])ccc1N1CCOCC1)c1cccs1`, the IC50 is > 200 µM (inactive).
To `COc1cccc(CCC(=O)N(C)C2CCCN(Cc3ccccc3F)C2)c1` (centres undefined) belongs > 200 µM (inactive); to `COCCCn1c(N)c(C(=O)NCc2ccco2)c2nc3ccccc3nc21`, > 200 µM (inactive).
To `COc1ccc(CCNC(=O)CCC(=O)N2CCOc3ccc(C)cc32)cc1OC` belongs > 200 µM (inactive).
With `Cc1ccn2c(C(=O)CSc3ccc(Cl)cc3Cl)c(C)nc2c1`, the IC50 was > 200 µM (inactive).
The figure for `Nc1c(C(=O)NCc2ccco2)c2nc3ccccc3nc2n1CCc1ccccc1` is > 200 µM (inactive); for `O=c1ccc2c(-c3ccccc3)c3ccc(O)cc3oc-2c1` it is > 200 µM (inactive); for `Cc1ccccc1NC(=O)CN1C(=O)N/C(=C\c2ccccc2OCc2ccc(C(=O)O)cc2)C1=O` it is > 200 µM (inactive).
On to `CCNc1ccc(C(=O)O)cc1N`, for which the IC50 result is “inactive”.
For the molecule `CC1(C)Cc2c(sc(/N=C/N3CCCCCC3)c2C#N)C(C)(C)N1`, the IC50 was > 200 µM (inactive).
For `CCN(CC)CCOC(=O)c1ccc(N/C=C(/C#N)c2nc(-c3ccc(OC)c(OC)c3)cs2)cc1`, the IC50 was > 200 µM (inactive).
As for `C=C(C)Cn1c(N2CCN(CC)CC2)nc2c1c(=O)[nH]c(=O)n2C`, the IC50 is > 200 µM (inactive).
For `COc1cccc2cc(C(=O)N3CCc4ccccc43)c(=O)oc12`, the IC50 is > 200 µM (inactive).
As to `O=C(O)CCN1C(=O)/C(=C/c2cn(-c3ccccc3)nc2-c2cccs2)SC1=S`, the IC50 is > 200 µM (inactive).
